Like-named read-outs stand apart in the source and are kept apart here. In the oligonucleotide strings, read from the 5' end, every base follows the letter of its sugar. An asterisk marks phosphorothioate; unmarked linkages are phosphodiester. Other units and linkages are bracketed, terminal groups are in braces. A string of capitals states the bases alone. d = 2'-deoxy (DNA)
Experiments:
[1] = test system: Miapaca-2 cells; test: Cell growth with gemcitabine treatment after sDNA transfection, Miapaca-2; assay type: cell-based, Human; conditions: 96 hours; for Fold change in numbers of viable cells normalized relative to TC: Miapaca-2, 0.1 ug sDNA
Experimental: (§1) Cells were fixed after 96 hours and numbers of viable cells counted by measuring the absorbance at 570 nm.
(§2) Cells were transfected with 0.1 μg of TC-sDNA, Mix-sDNA, CG-sDNA, and AT-sDNA.

[2] = test system: HMGA1 expression levels in AsPC-1 cells; test: Western blot of HMGA1 expression levels in AsPC-1 nuclear extracts; assay type: cell-based, Human; conditions: AsPC-1, 0.5 μg sDNA in six well plates, 48 hours
Experimental: Cytoplasmic and nuclear protein extracts were prepared from pancreatic cancer cells using NE-PER extraction kit (Thermo Scientific, Rockford, Ill.). Protein concentrations were determined using a bicinchoninic acid assay with bovine serum albumin as a standard. Nuclear proteins that contained 25 or 15 μg total protein were separated by SDS-PAGE with a 4%-20% Criterion gradient gel (Bio-Rad Laboratories, Inc., Hercules, Calif.). The proteins were transferred to immuno-blot PVDF membrane (0.2 μm) (Bio-Rad Laboratories, Inc., Hercules, Calif.) and blocked in 5% dry milk in PBS supplemented with 0.2% Tween 20 (PBST). The PVDF membranes were then probed with 1:1000 dilution of rabbit anti-HMGA1 antibody (Santa Cruz Biotechnology Inc, Santa Cruz, Calif.) and 1:100 dilution of rabbit anti-HMGA2 antibody (Abcam plc, Cambridge, Mass.), in 3% BSA in PBST at 4° C. overnight. After three washes with PBST, the membrane was blotted with secondary antibody, ant-rabbit IgG-HRP (cell signaling) 1:5000 dilution in 1% dry milk in PBST at room temperature for 1 hour. An enhanced chemiluminescence detection (ECL, GE Healthcare Life Sciences, Piscataway, N.J.) system was used to detect target proteins. To ensure equal loading of the proteins between groups, membranes were re-probed with anti-TATA binding protein antibody (Abcam plc, Cambridge, Mass.). […] The control was nuclear extract from untreated cells. Triplicates of each sample were run on the gel and analyzed with the Alpha Imager. The relative HMGA1 densities were obtained by dividing HMGA 1 density by TBP density. […] TATA binding protein (TBP) was used as a loading control. […] HMGA1 expression levels were examined after transfection with CG-sDNA or AT-sDNA to determine if the transfection procedure affected HMGA1 expression levels. The AT-sDNA used for transfection contained an 18 adenine/thymine stretch enabling HMGA1 to bind the DNA with all three AT-hooks. As a negative control, a non-HMGA1-targeted sDNA containing an equal length of DNA but with no AT-stretches, i.e. CG-sDNA, was used. […]

[3] = test system: Miapaca-2 cells; test: Cell viability (crystal violet) after sDNA transfection, Miapaca-2; assay type: cell-based, Human; conditions: for cells dead compared to TC: versus transfection control (TC) cells; for cells dead compared to UT: Miapaca-2, 0.1 ug sDNA, versus untransfected (UT) cells; for Fold change in numbers of viable cells between TC and sDNA transfected cells (in parentheses) / Fold change in numbers of viable cells between UT and transfected cells: 96 h after transfection
Experimental: The absorbance was measured at 570 nm in quadruplicate. All data from control cells were combined and averaged.

[4] = test system: AsPC-1 cells; test: Cell growth with gemcitabine treatment after sDNA transfection, AsPC-1; assay type: cell-based, Human; conditions: for cells died: AsPC-1, 0.25 μg AT-sDNA
[5] = test system: Miapaca-2 cells; test: Cell growth with gemcitabine treatment after sDNA transfection, Miapaca-2; assay type: cell-based, Human; conditions: for Fold change in numbers of viable cells normalized relative to TC: 96 hours
[6] = test system: AsPC-1 cells; test: Cell growth with gemcitabine treatment after sDNA transfection, AsPC-1; assay type: cell-based, Human; conditions: for Fold change in numbers of viable cells normalized relative to TC: AsPC-1, 0.1 ug sDNA, 96 hours
Experimental: as §1, §2

[7] = test system: AsPC-1 cells; conditions: for cell death: 96 h, compared to non-transfected cells; for cells dead compared to UT: AsPC-1, 0.1 ug sDNA, versus untransfected (UT) cells; for Fold change in numbers of viable cells between TC and sDNA transfected cells (in parentheses) / Fold change in numbers of viable cells between UT and transfected cells: 96 h after transfection
Experimental: AsPC-1 cells were grown in Roswell Park Memorial Institute medium supplemented with 10% FBS, and 1% penicillin-streptomycin.
Transfections using sDNA at concentrations of 0.1 and 0.25 μg per well were conducted with 5×10^4 and 1×10^5 Miapaca-2 and AsPC-1 cells, respectively, in 24-well plates and all data were collected in quadruplicate. Miapaca-2 and AsPC-1 cells were transfected with sDNA using Lipofectamine 2000 (Invitrogen,™ Life Technologies Corporation, Carlsbad, Calif.) according to the manufacturer's protocol.
Briefly, AsPC-1 cells grown in 10% FBS containing RPIM medium were trypsinized using a trypsin-EDTA solution commercially available from the Sigma-Aldrich, and used to seed fresh media in a 24-well plate with 10^5 cells per well.
After 48 hours, the cells were transfected with the selected sDNA using Lipofectamine 2000 (Invitrogen,™ Life Technologies Corporation, Carlsbad, Calif.) according to the manufacturer's protocol. […] The cells were then fixed with 4% paraformaldehyde in PBS for 20 minutes and stained in 0.1% crystal violet stain (Sigma-Aldrich) for 30 minutes. The cells were washed under running tap water, air dried, and extracted with 0.2% Triton™ X-100 for 30 minutes. […] The absorbance of the Triton X-100 was measured at 570 nm using a HTS microplate reader. All results were analyzed for statistical significance using a student's unpaired t-test.

Substance: AT-sDNA: AT-rich phosphorothioate DNA, 5′-G*G*G*A*A*A*A*A*A*T*T*T*T*T*T*A*A*A*A*A*A*C*C*C-3′ (SEQ ID NO: 1), sulfur substitution at every position (DNA dG*dG*dG*dA*dA*dA*dA*dA*dA*dT*dT*dT*dT*dT*dT*dA*dA*dA*dA*dA*dA*dC*dC*dC)
- cells dead / change in cell viability ([1]; Miapaca-2, 0.1 μg sDNA, 1 nM gemcitabine): 33.6%
- cells surviving ([1]; Miapaca-2, 0.1 μg sDNA, 10 nM gemcitabine, normalized to 0 nM gemcitabine): 51.2%
- Fold change in numbers of viable cells normalized relative to TC ([1]; Gemcitabine 0 nM): −1.52 fold
- Fold change in numbers of viable cells normalized relative to TC ([1]; Gemcitabine 10 nM): −1.79 fold
- Fold change in numbers of viable cells normalized relative to TC ([1]; Gemcitabine 30 nM): −7.07 fold
- Fold change in numbers of viable cells normalized relative to TC ([1]; Gemcitabine 100 nM): −9.58 fold
- Fold change in numbers of viable cells normalized relative to TC ([1]; Gemcitabine 1000 nM): −6.82 fold
- change in HMGA1 expression levels after sDNA transfection [2]: no changes
- cells dead compared to TC ([3]; Miapaca-2, 0.1 μg sDNA, 48 hrs): 17.2%
- cells dead compared to UT ([3]; 48 hrs): 48.4%
- Fold change in numbers of viable cells between TC and sDNA transfected cells (in parentheses) ([3]; Miapaca-2, 0.1 μg sDNA): −1.52 fold
- Fold change in numbers of viable cells between UT and transfected cells ([3]; Miapaca-2, 0.1 μg sDNA): −2.36 fold
- cells dead compared to TC ([3]; Miapaca-2, 0.1 μg sDNA, 96 hrs): 34.1%
- cells dead compared to UT ([3]; 96 hrs): 58.9%
- Fold change in numbers of viable cells between TC and sDNA transfected cells (in parentheses) ([3]; Miapaca-2, 0.25 μg sDNA): −3.68 fold
- Fold change in numbers of viable cells between UT and transfected cells ([3]; Miapaca-2, 0.25 μg sDNA): −6.07 fold
- cell death ([4]; AsPC-1, 0.025 μg AT-sDNA, 1000 nM gemcitabine): 31%
- cells dying ([4]; AsPC-1, 0.1 μg AT-sDNA, 1 nM gemcitabine): 9.0%
- cells died ([4]; 1 nM gemcitabine): 14.9%
- cells died ([4]; 100 nM gemcitabine): 41.7%
- overall drop in the number of viable cells after gemcitabine treatment ([4]; AsPC-1, AT-sDNA transfection): 2-4 fold
- Fold change in numbers of viable cells normalized relative to TC ([5]; Miapaca-2, 0.1 ug sDNA, Gemcitabine 1 nM): −1.38 fold
- Fold change in numbers of viable cells normalized relative to TC ([5]; Miapaca-2, 0.25 ug sDNA, Gemcitabine 0 nM): −3.68 fold
- Fold change in numbers of viable cells normalized relative to TC ([5]; Miapaca-2, 0.25 ug sDNA, Gemcitabine 1 nM): −4.45 fold
- Fold change in numbers of viable cells normalized relative to TC ([5]; Miapaca-2, 0.25 ug sDNA, Gemcitabine 10 nM): −4.14 fold
- Fold change in numbers of viable cells normalized relative to TC ([5]; Miapaca-2, 0.25 ug sDNA, Gemcitabine 30 nM): −8.32 fold
- Fold change in numbers of viable cells normalized relative to TC ([5]; Miapaca-2, 0.25 ug sDNA, Gemcitabine 100 nM): −11.81 fold
- Fold change in numbers of viable cells normalized relative to TC ([5]; Miapaca-2, 0.25 ug sDNA, Gemcitabine 1000 nM): −11.31 fold
- overall drop in the number of viable cells ([5]; Miapaca-2, either 0.1 or 0.25 μg AT-sDNA, 100 nm or greater gemcitabine): ~10 fold
- cells dying ([6]; AsPC-1, 0.1 μg AT-sDNA, 100 nM gemcitabine): 29.4%
- Fold change in numbers of viable cells normalized relative to TC ([6]; Gemcitabine 0 nM): −1.44 fold
- Fold change in numbers of viable cells normalized relative to TC ([6]; Gemcitabine 1 nM): −1.58 fold
- Fold change in numbers of viable cells normalized relative to TC ([6]; Gemcitabine 10 nM): −1.71 fold
- Fold change in numbers of viable cells normalized relative to TC ([6]; Gemcitabine 30 nM): −1.86 fold
- Fold change in numbers of viable cells normalized relative to TC ([6]; Gemcitabine 100 nM): −2.04 fold
- Fold change in numbers of viable cells normalized relative to TC ([6]; Gemcitabine 1000 nM): −2.33 fold
- cell death ([7]; AsPC-1, 0.1 μg sDNA per well): 33%
- cells dead compared to TC ([7]; AsPC-1, 0.1 μg sDNA, 48 hrs, versus transfection control (TC) cells): 22.3%
- cells dead compared to UT ([7]; 48 hrs): 42.0%
- Fold change in numbers of viable cells between TC and sDNA transfected cells (in parentheses) ([7]; AsPC-1, 0.1 μg sDNA): −1.44 fold
- Fold change in numbers of viable cells between UT and transfected cells ([7]; AsPC-1, 0.1 μg sDNA): −1.57 fold
- cells dead compared to TC ([7]; AsPC-1, 0.1 μg sDNA, 96 hrs, versus transfection control (TC) cells): 30.7%
- cells dead compared to UT ([7]; 96 hrs): 36.1%
- cell death ([7]; AsPC-1, 0.25 μg sDNA per well): 44%
- Fold change in numbers of viable cells between TC and sDNA transfected cells (in parentheses) ([7]; AsPC-1, 0.25 μg sDNA): −1.65 fold
- Fold change in numbers of viable cells between UT and transfected cells ([7]; AsPC-1, 0.25 μg sDNA): −1.79 fold
- cell death compared to TC ([7]; AsPC-1, 0.25 μg sDNA, 96 hours, versus TC cells): 39.4%
- cell death ([7]; AsPC-1, 1.0 μg sDNA per well): 57%
- cells dead compared to TC ([7]; AsPC-1, 1.0 μg sDNA, 96 hours, versus TC cells): 53.6%

— patent US9492470B2, “Use of HMGA-targeted phosphorothioate DNA aptamers to suppress carcinogenic activity and increase sensitivity to chemotherapy agents in human cancer cells” (MIAMI UNIVERSITY, priority 2012, dated 2016)
